The values that follow come from a melting point compilation (Tetko et al.; mined from patent text by program, amines drawn as free bases though some values may be those of a salt).

By melting point is commonly meant the temperature, or range, at which the solid turns liquid.

Non-standard residues stand in square brackets, D forms with d. Residues, ends and D or L forms follow the SMILES beside them. ξ: configuration not given here. *: point of attachment. Boc = CC(C)(C)OC(=O)*; ξA = CC(N)C(=O)O

As to `Cc1ccc(-c2occc2C(=O)O)cc1`, the melting point amounted to 166 °C.
In the case of `CC1(C)Cc2c(c(N3CCOCC3)nc3sc4c(NCC(=O)N5CCOCC5)ncnc4c23)CO1` it was 209 to 210 °C; in that of `CC(=O)CCCc1ccc(S(N)(=O)=O)s1`, 54 to 57 °C.
To `COC(=O)COc1cc2ccccc2c2c1c(C(=O)C(N)=O)c(C)n2CC1CCCCC1` belongs 156 to 158 °C; to `CCOC(=O)c1cccc2c1CCc1cc(O)ccc1S2`, 125 to 129 °C.
In the case of `O=S(=O)(Cc1ccccc1)c1ncc(Br)cn1` it was 142 to 143 °C.
In turn, `O=C1CC(=O)CC(CC2CCOCC2)C1` displayed a melting point of 129 to 130 °C.
In the case of `CCCC(CCNC(=O)C(C#N)=Cc1cc(O)c(O)c(OC)c1)NC(=O)C(C#N)=Cc1cc(O)c(O)c(OC)c1` (stereo not drawn) it was 243 °C; in that of `Cc1oc(-c2cccc(C#N)c2)nc1CCl`, 100 to 101 °C; in that of `CCOC(=O)C(=O)Nc1cccc(OCc2ccccc2)c1C(N)=O`, 151 to 153 °C.
To `Cc1cc(O)nc(SCC(CS(=O)(=O)c2ccc(-c3ccc(Cl)cc3)cc2)C(=O)O)n1` (stereo not drawn) belongs 165 to 168 °C.
For the compound `COc1cccc(C(=O)c2ccc(OCc3nc(-c4ccccc4)oc3C)cc2)c1O`, the melting point was 152 to 153 °C.
`O=C1CCC2=C1C(c1ccc(F)c(Br)c1)C1=C(CCS1)N2` (stereo not drawn) showed a melting point of more than 260 °C.
Turning to `CS(=O)(=O)Nc1ccc(N2CCN(c3cnccc3N)CC2)cc1`, the melting point was in the range of 246 to 248 °C.
In the case of `CCCCOC(=O)c1cn(CC)c2nc(N3CCNCC3)c(F)cc2c1=O` it was 119 to 120 °C; in that of `Cc1nc2cnccc2n1-c1ccc(OCc2cccc(C(=O)O)c2)cc1`, 255 to 258 °C; in that of `CC(NC(=O)CNC(=O)c1ccccc1)C(C)(C)C` (stereo not drawn), 124 to 126 °C.
In the case of `CCCC(O)c1cc(-c2ccc(C(F)(F)F)n(C)c2=O)c(F)cc1Cl` (stereo not drawn) it was 120 to 122 °C; in that of `CCCCCCCc1ccc(C(=O)Nc2ccc3oc(Nc4ccc(CC)cc4)nc3c2)cc1`, 245 to 246 °C.
Consider `COc1ccc(-c2ccc(-c3ccccc3Cl)n2Cc2cccc(N)n2)cc1`, for which the melting point is 147 to 148 °C.
To `CC(C)(C)c1cc(C(=O)CCCCOc2ccc(C(=O)C(=O)O)cc2)cc(C(C)(C)C)c1O` belongs 144 to 145 °C; to `CC(C)(C)OC(=O)NC(C(=O)Oc1ccc(/C=c2\[nH]c(=O)/c(=C/c3ccccc3)[nH]c2=O)nc1)c1ccccc1` (stereo not drawn), 198 °C.
In the case of `O=c1oc(-c2ccccc2)cc(O)c1SCc1cccc(OCCc2ccccc2)c1` it was 85 to 90 °C.
In the case of `CCCc1c2cc(C(=O)OCC)oc2cc2c(=O)cc(C(=O)OCC)oc12` it was 145 to 147 °C; in that of `Cc1cc(O)c(C)c(C)c1OC(=O)C(C)(C)C`, 88 to 112 °C; in that of `NNC1(Cl)C=Cc2nc(Cl)cnc2C1` (stereo not drawn), less than 250 °C.
In the case of `COC(=O)CNC(=O)C(C)NC(=O)CNC(=O)CNC(=O)OC(C)(C)C` (stereo not drawn) (Boc-GG[ξA]G-OMe), the melting point was in the range of 103 to 105 °C.
To `Cc1c(C)c(C=O)c2c(c1C)CCO2` belongs 90 °C.
For the compound `CCCCCCCCCCCCCCC(=O)C(=O)NC(C=CC(=O)OC)CCCC` (stereo not drawn), the melting point lay in the range of 48 to 50 °C.
Turning to `CCOC(=O)C(C)(C)n1c(=O)[nH]c2cc(Cl)ccc2c1=O`, the melting point was 201 to 202 °C.
The compound `CNC(=O)Nc1ccc2c(c1Cl)C(c1ccccc1F)=NCC(=O)N2C` showed a melting point of 145 to 160 °C.
In the case of `COc1ccc(C(=O)N2CCN(c3c(C)c(C)c4c(c3C)C(c3ccc(C)cc3)C(C)(C)O4)CC2)cc1` (stereo not drawn) it was 163 to 165 °C; in that of `CCCCc1cc(=O)c(C(=O)OCC)cn1Cc1ccc(-c2ccccc2C(=O)OC(C)(C)C)cc1`, 80 to 81 °C.
In the case of `CCOC(=O)c1csc(NC(=O)C(CC2CCCC2)c2ccc(NC(=O)c3cccnc3)cc2)n1` (stereo not drawn), the melting point lay within 222 to 223 °C.
In the case of `CCCCCCCCCCCCCCC(O)C(O)C(N)CO` (stereo not drawn) it was 132 to 134 °C.
In turn, `O=C1NC(=O)C(CC#Cc2ccc(Cl)cc2)(Sc2ccc(F)cc2)S1` (stereo not drawn) gave a melting point of 116 to 117 °C.
To `Cc1cccc(Sc2nc(C#N)c(C#N)nc2Cl)c1` belongs 117 to 119 °C.
In the case of `N#Cc1ccc(C2CC(=O)N(Cc3ccccc3)Cc3cncn32)cc1` (stereo not drawn) it was 65 °C.
To `CCc1ccc(-c2ccc(C(=O)c3ccccc3)cc2)cc1` belongs 106 to 108 °C; to `Cc1ccc(S(=O)(=O)OC[C@H]2CN(c3ccc(N4CCSCC4)c(F)c3)C(=O)O2)cc1`, 141 °C.
As for `O=c1ccc(-c2c(-c3ccccc3)nn3ccccc23)nn1[C@@H]1CCCC[C@@H]1O` (relative stereo), the melting point fell in the range of 195 to 197 °C.
Take `O=C1CCCCC1Oc1ccc(-c2c(-c3ccccc3)nn3ccccc23)nn1` (stereo not drawn): the melting point lay within 214 to 216 °C.
To `Cc1ccc(C(=O)Nc2cccc(C(F)(F)F)c2)cc1Br` belongs 157 to 158 °C; to `CCOc1ccc(/C=C(\C)C(=O)O)cc1`, 180 °C; to `CCCCNC(=O)CCc1ccccc1`, 26.7 to 33.1 °C.
In the case of `CCOC(=O)C(=O)N(C)c1cccccc1=O` it was 70 to 71 °C; in that of `COc1cc2c(c3c1OC(C)(C)C3)C(c1cccc(NC(=O)CS(C)(=O)=O)c1)=NC(C)(C)C2`, 135 to 140 °C.
In the case of `COC(=O)CC(Nc1ccccc1)c1ccccc1` (stereo not drawn) it was 110 °C.
The compound `COc1cccc2c(=O)c(-c3cccc(C(F)(F)F)c3F)nn(CCCNS(C)(=O)=O)c12` displayed a melting point of 62 to 64 °C.
In the case of `COC(=O)c1ccc(-c2ccc3cc(OS(=O)(=O)C(F)(F)F)c(C45CC6CC(CC(C6)C4)C5)cc3c2)cc1`, the melting point lay within 226 to 227 °C.
In the case of `CCOC(=O)c1cnc(-c2ccc(Cl)cc2)nc1-c1ccc(OC)c(OC)c1` it was 115 °C.
To `Cc1ccc(-c2oncc2CCC(=O)O)cc1` belongs 121 to 122 °C.
In the case of `COc1cc2c(cc1OC)CN(CCCCc1ccc(NC(=O)c3cnc4cc(C)c(C)cc4n3)cc1)CC2` it was 100 to 105 °C.
Compound `O=C(NC(=O)c1c(Cl)cccc1Cl)Nc1cc(-c2ccc(C(F)(F)F)cc2)on1` had a melting point of 227 to 230 °C.
`COC(=O)c1cc(-c2cccc(C(F)(F)F)c2)ns1` showed a melting point of 82 to 83 °C.
To `O=C(O)c1csc(-c2ncccc2O)n1` belongs more than 300 °C; to `CCC1(CC)O[C@@H](Oc2ccc3c(O)c(NC(=O)C(C)C)c(=O)oc3c2C)[C@H](O)[C@H](OC(=O)C2(C)C=CCN2)[C@H]1OC` (stereo partly drawn), 140 to 142 °C; to `Nc1cc(C(F)(F)F)cc(N)c1Cl`, 96 °C.
To `O=Cc1cc(Br)c(Cl)s1` belongs 61 to 62 °C; to `CC(C)(O)Cn1c(CO)nc2c(N)nc3cc(CCC(=O)N4CCOCC4)ccc3c21`, 223 to 225 °C; to `O=C1CN=C(c2ccccc2Cl)c2cc(I)ccc2N1`, 260 to 262 °C.
`CC1(C)CCC(C)(C)c2cc(C=O)c(Br)cc21` yielded a melting point of 114 °C.
In the case of `Nc1c(-c2ccc(-c3cccnc3)cc2)nc2ccc(F)cc2c1C(=O)O` it was 260 to 268 °C; in that of `N#CNC(=Nc1ccccc1)NCCNCC(O)COc1ccccc1C#N` (stereo not drawn), 146 to 147 °C.
`CCCC(=O)C1c2cccc(O)c2C(=O)c2c(O)cccc21` displayed a melting point of 138 °C.
In the case of `CCC(C(=O)C(C)C(O)C(C)CCc1c(N=Nc2ccccc2)cc(C)c(O)c1C(=O)O)C1OC(CC)(C2CCC(O)(CC)C(C)O2)CC1C` (stereo not drawn) it was 212 to 215 °C; in that of `COc1ccc(C(C#Cc2ccccc2)Cc2noc(C)n2)cc1OC1CCCC1` (racemic), 86 to 90 °C.
`O=C(CN1c2ccccc2Cn2c1nc(-c1ccncn1)cc2=O)c1ccccc1` displayed a melting point of 263 to 265 °C.
As to `FC(F)(F)c1cccc(-c2cc(CCl)on2)c1`, the melting point is 33 to 37 °C.
With `Cc1[nH]c(C)c2c1C(C)(C)CC2(C)C#N` (stereo not drawn), the melting point was in the range of 130 to 140 °C.
In the case of `N#Cc1nn(-c2c(Cl)cc(C(F)(F)F)cc2Cl)c(N)c1C1CC1(Br)Br` (stereo not drawn), the melting point lay in the range of 178 to 179 °C.
To `CC(C)(C)NC(=O)N1C(=O)[C@H](O)[C@@H]1c1ccccc1` belongs 148 to 151 °C.
To `COc1cc2c(cc1-c1ccccc1F)NC(=O)CC(c1cc(C#N)ccc1F)=N2` belongs more than 250 °C.
Consider `COc1ccc(CC(O)CO)c(OCc2ccccc2)c1` (stereo not drawn), for which the melting point is 82 to 86 °C.
In the case of `O=C(Cl)c1ccc2cc(C(=O)Cl)ccc2c1` it was 186 °C; in that of `OCCNc1nc(NCCO)nc(Nc2ccccc2Cl)n1`, 108 to 110 °C; in that of `O=C(O)CCCCCCCn1ccnc1`, 91 to 94 °C.
To `CCOC(=O)/C=C/c1ccc(/C=C(\C)c2ccc3c(c2)C(C)(C)CCC3(C)C)cc1` belongs 126 to 127 °C; to `O=C1C=C/C(=C/c2ccc(F)cc2)O1`, 140 to 142 °C; to `COc1ccc(C(=C2CN(C(c3ccccc3)c3ccccc3)C2)S(C)(=O)=O)cc1`, 181 °C.
In the case of `CS(=O)(=O)c1c(C(=O)NN=Cc2ccc(Cl)cc2)[nH]c2ccccc12` it was more than 280 °C.
The compound `N#Cc1nn(-c2c(Cl)cc(C(F)(F)F)cc2Cl)cc1C1CC(=O)C1(Cl)Cl` (stereo not drawn) had a melting point of 118 to 120 °C.
To `CCOP(=O)(CCCCC1(C(=O)NCC(F)(F)F)c2ccccc2-c2ccccc21)OCC` belongs 87 to 89 °C.
In the case of `COC(=O)c1ccc(CNc2cc(-c3cc4cc(F)c(F)cc4[nH]3)ccc2OC)cc1` it was 168 to 170 °C; in that of `CC(=O)Cc1nc2cc(C)ccc2c(=O)o1`, 142 to 144 °C; in that of `CN(Cc1ccncc1)Cc1ccc(CCC(=O)Nc2ccc(-c3ccc(Cl)cc3)cc2)cc1`, 102 °C.
As to `Cc1oc(-c2ccccc2Cl)nc1CCOc1ccc([N+](=O)[O-])cn1`, the melting point lay within 100 to 101 °C.
To `CNC(=NC(=O)OC)N(C)C` belongs 80 to 85 °C.
